Assay results reported in ChEMBL document CHEMBL1125177, “Pseudopeptide analogues of substance P and leucine enkephalinamide containing the psi (CH2O) modification: synthesis and biological activity” (J Med Chem, 1991).
Activity calls are given as the source filed them. The rule behind the calls is not given here. Starred links: 1 amine or outer side, 2 acyl side, 3 side chain; linkers in the order of their positions; H or OH if unused. Non-standard residues stand in square brackets, D forms with d. Residues, ends and D or L forms follow the SMILES beside them. X3 = O=C(CCC(=O)[*:2])[C@H](Cc1ccccc1)N[*:1]; X4 = O=C(C/C=C/[C@H](Cc1ccccc1)N[*:1])[*:2]; X1 = O=C(COC[C@H](Cc1ccccc1)N[*:1])[*:2]; NMeF = CN[C@@H](Cc1ccccc1)C(=O)O; pGlu = O=C1CC[C@@H](C(=O)O)N1; AEA = NCCOCC(=O)O; Ava = NCCCCC(=O)O; Sar = CNCC(=O)O

Experiments:
[1] = target: Substance-P receptor (Cavia porcellus, UniProt P30547); experiment: Effective dose was measured on NK1 receptors of guinea pig ileum for maximal contraction in the presence of 3*10e-7 M atropine; assay type: functional, tissue-based
[2] = species on record: Cavia porcellus; experiment: Relative potency as ratio of the EC50 value of analogue to that of [PGlu6]SP6-11 in achykinin receptor 3 in guinea pig ileum; assay type: functional
[3] = species on record: Cavia porcellus; experiment: Effective dose was measured on guinea pig ileum for maximal contraction; assay type: functional
[4] = species on record: Rattus norvegicus; experiment: Inhibitory effect was measured on electrically stimulated rat vas deferens contraction; assay type: functional
[5] = target: T1, Neuromedin-K receptor (Cavia porcellus, UniProt P30098); experiment: Effective dose was measured on NK3 receptors of guinea pig ileum for maximal contraction in the presence of 10e-7 M substance P methyl ester.; assay type: functional, tissue-based
T1 sequence (P30098 whole entry): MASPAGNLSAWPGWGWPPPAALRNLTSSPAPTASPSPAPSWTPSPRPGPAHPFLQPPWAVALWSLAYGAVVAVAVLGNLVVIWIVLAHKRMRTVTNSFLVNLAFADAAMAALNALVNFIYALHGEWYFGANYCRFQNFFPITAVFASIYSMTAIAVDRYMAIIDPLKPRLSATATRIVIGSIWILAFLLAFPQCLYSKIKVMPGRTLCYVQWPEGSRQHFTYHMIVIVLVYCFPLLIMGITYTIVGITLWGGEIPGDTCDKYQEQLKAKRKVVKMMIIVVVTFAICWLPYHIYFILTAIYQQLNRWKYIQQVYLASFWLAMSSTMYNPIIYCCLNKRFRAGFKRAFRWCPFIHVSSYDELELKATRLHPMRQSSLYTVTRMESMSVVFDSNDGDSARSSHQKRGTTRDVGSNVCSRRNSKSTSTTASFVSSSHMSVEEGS

[6] = Ratio of NK-1 receptor to that of NK-3 receptor; assay type: functional
[7] = species on record: Cavia porcellus; experiment: Relative potency to that of [D-Ala2,Leu5]enkephalinamide in guinea pig ileum; assay type: functional
[8] = species on record: Cavia porcellus; experiment: Effective concentration was determined using guinea pig ileum; assay type: functional
[9] = species on record: Cavia porcellus; experiment: Relative potency to that of [pGlu6]SP6-11 in guinea pig ileum; assay type: functional
[10] = species on record: Mus musculus; experiment: Inhibitory effect was measured on mouse vas deferens; assay type: functional
[11] = target: Delta-type opioid receptor (Rattus norvegicus, UniProt P33533); experiment: Binding affinity to opioid receptor delta was determined in rat brain using [3H]DSTBULET as radioligand; assay type: tissue-based
[12] = species on record: Cavia porcellus; experiment: Inhibitory effect was measured on guinea pig ileum for maximal contraction; assay type: functional
[13] = target: T2, Neuromedin-K receptor (Cavia porcellus) (UniProt P30098); experiment: Relative potency as ratio of the EC50 value of analogue to that of [PGlu6]SP6-11 in tachykinin receptor 3 in guinea pig ileum; assay type: functional, tissue-based
T2 sequence (whole entry): T1 sequence (P30098 whole entry)

[14] = species on record: Mus musculus; experiment: Relative potency to that of [D-Ala2, Leu5]-enkaphalinamide in mouse vas deferens; assay type: functional
[15] = species on record: Cavia porcellus; experiment: Relative potency to that of [DAla2,Leu5]enkaphalinamide.; assay type: functional
[16] = Ratio of IC50 measured in MVD to that of GPI.; assay type: functional
[17] = target: Mu-type opioid receptor (Rattus norvegicus, UniProt P33535); experiment: Binding affinity to opioid receptor mu was determined in rat brain using [3H]DAGO as radioligand; assay type: tissue-based
[18] = target: Delta-type opioid receptor (Rattus norvegicus) (UniProt P33533); experiment: It is the ratio of Ki value for delta receptor to that of opioid receptor mu
[19] = target: T1, Neuromedin-K receptor; experiment: Effective dose was measured on NK3 receptors of guinea pig ileum for maximal contraction in the presence of 10e-7 M substance P methyl ester; assay type: functional, tissue-based
[20] = Ratio of IC50 measured in MVD to that of GPI; c= Did not show agonist activity up to 10E-5 M.; assay type: functional
[21] = species on record: Mus musculus; experiment: Inhibitory effect was measured on mouse vas deferens; c = Did not show agonist activity up to 10E-5 M; assay type: functional
[22] = species on record: Mus musculus; experiment: Relative potency to that of [D-Ala2, Leu5]-enkaphalinamide in mouse vas deferens; c = Did not show agonist activity up to 10E-5 M; assay type: functional

Delta-type opioid receptor, sequence (P33533 whole entry): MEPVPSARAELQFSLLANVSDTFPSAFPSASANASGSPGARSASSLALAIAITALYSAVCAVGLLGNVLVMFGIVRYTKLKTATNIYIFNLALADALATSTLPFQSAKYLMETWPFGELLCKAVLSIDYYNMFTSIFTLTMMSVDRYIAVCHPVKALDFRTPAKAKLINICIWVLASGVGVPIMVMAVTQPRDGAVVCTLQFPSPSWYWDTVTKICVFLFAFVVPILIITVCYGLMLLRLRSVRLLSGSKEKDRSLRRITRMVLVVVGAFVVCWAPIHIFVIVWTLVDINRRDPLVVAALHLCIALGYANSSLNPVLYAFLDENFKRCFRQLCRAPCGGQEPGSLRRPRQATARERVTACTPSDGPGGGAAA
Substance-P receptor, sequence (P30547 whole entry): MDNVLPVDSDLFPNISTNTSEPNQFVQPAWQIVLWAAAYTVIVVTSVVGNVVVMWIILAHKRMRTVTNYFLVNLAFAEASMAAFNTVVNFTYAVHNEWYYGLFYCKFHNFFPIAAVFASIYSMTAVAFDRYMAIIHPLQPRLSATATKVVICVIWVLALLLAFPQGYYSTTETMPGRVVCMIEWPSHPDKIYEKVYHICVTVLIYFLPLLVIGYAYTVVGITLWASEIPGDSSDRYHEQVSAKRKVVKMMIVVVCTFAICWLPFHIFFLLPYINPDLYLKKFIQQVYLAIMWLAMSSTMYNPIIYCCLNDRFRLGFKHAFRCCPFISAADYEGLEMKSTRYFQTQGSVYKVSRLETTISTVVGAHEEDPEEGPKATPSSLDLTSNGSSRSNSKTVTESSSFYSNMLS
Mu-type opioid receptor, sequence (P33535 whole entry): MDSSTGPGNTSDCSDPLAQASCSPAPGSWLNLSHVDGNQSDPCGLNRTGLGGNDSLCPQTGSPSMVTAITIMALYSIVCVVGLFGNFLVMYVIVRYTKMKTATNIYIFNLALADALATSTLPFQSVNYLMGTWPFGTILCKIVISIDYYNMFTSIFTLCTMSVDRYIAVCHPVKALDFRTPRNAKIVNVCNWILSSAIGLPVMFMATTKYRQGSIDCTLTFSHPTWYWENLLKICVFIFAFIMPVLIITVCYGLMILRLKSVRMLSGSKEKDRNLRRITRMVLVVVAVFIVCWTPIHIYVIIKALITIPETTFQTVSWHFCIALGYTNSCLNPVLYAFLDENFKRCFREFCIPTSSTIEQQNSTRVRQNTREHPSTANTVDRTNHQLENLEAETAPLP
Delta-type opioid receptor (Rattus norvegicus), sequence (P33533 whole entry): as the sequence (P33533 whole entry) above

CSCC[C@H](NC(=O)[C@H](CC(C)C)NC(=O)CNC(=O)[C@H](Cc1ccccc1)N(C)C(=O)[C@H](Cc1ccccc1)NC(=O)[C@@H]1CCC(=O)N1)C(N)=O ([pGlu]F[NMeF]GLM-NH2)
EC50 [1]: 600 nM
Relative potency [2]: 555%
EC50 [3]: 0.4 nM
EC50 [4]: 20000 nM
EC50 [5]: 0.9 nM
Ratio [6]: 670

CSCC[C@H](NC(=O)[C@H](Cc1ccccc1)NC(=O)CNCCNC(=O)[C@@H](N)Cc1ccc(O)cc1)C(N)=O
Relative potency [7]: 0.3%

CSCC[C@H](NC(=O)[C@H](Cc1ccccc1)NC(=O)CCCCNC(=O)[C@@H](N)Cc1ccc(O)cc1)C(N)=O (H-Y[Ava]FM-NH2)
Relative potency [7]: <0.3%

CSCC[C@H](NC(=O)[C@H](CC(C)C)NC(=O)C/C=C/[C@H](Cc1ccccc1)NC(=O)[C@H](Cc1ccccc1)NC(=O)[C@@H]1CCC(=O)N1)C(N)=O ([pGlu]F[X4]LM-NH2)
EC50 [8]: 2 nM
Relative potency [9]: 24%

C[C@@H](NC(=O)[C@@H](N)Cc1ccc(O)cc1)C(=O)NCC(=O)N(C)[C@@H](Cc1ccccc1)C(=O)NCCO [DAMGO]
IC50 [10]: 51.5 nM
Ki [11]: 629 nM
IC50 [12]: 18 nM

CSCC[C@H](NC(=O)[C@H](CC(C)C)NC(=O)COC[C@H](Cc1ccccc1)NC(=O)[C@H](Cc1ccccc1)NC(=O)[C@@H]1CCC(=O)N1)C(N)=O ([pGlu]F[X1]LM-NH2)
EC50 [1]: 39.6 nM
EC50 [3]: 4.8 nM
Relative potency [13]: 40%
EC50 [4]: 2000 nM
EC50 [5]: 12.5 nM
Ratio [6]: 3.16
EC50 [8]: 2 nM
Relative potency [9]: 25%

CSCC[C@H](NC(=O)[C@H](CC(C)C)NC(=O)CC(=O)N[C@H](Cc1ccccc1)NC(=O)[C@H](Cc1ccccc1)NC(=O)[C@@H]1CCC(=O)N1)C(N)=O
EC50 [8]: 2 nM
Relative potency [9]: 22%

CSCC[C@H](NC(=O)[C@H](CC(C)C)NC(=O)CN(C)C(=O)[C@H](Cc1ccccc1)NC(=O)[C@H](Cc1ccccc1)NC(=O)[C@@H]1CCC(=O)N1)C(N)=O ([pGlu]FF[Sar]LM-NH2)
EC50 [8]: 2 nM
Relative potency [9]: 80%

CC(C)CC(NC(=O)[C@H](Cc1ccccc1)NC(=O)COC[C@@H](CO)NC(=O)C(N)Cc1ccc(O)cc1)C(=O)N[C@H](C(=O)O)[C@@H](C)O (stereo not given in full)
IC50 [10]: 0.54 nM
Relative potency [14]: 21.8%
Relative potency [15]: 0.09%
IC50 [12]: 350 nM
Ratio [16]: 0.0015

CSCC[C@H](NC(=O)[C@H](Cc1ccccc1)NC(=O)CNC(=O)[C@@H](C)NC(=O)[C@@H](N)Cc1ccc(O)cc1)C(N)=O
Relative potency [7]: 1.1%
IC50 [10]: 4.2 nM
Relative potency [14]: 2.8%
IC50 [12]: 29 nM
Ratio [16]: 0.14

CSCC[C@H](NC(=O)[C@H](Cc1ccccc1)NC(=O)CNC(=O)CCC[C@H](N)Cc1ccc(O)cc1)C(N)=O
Relative potency [7]: 3%

CC(C)C[C@H](NC(=O)[C@H](Cc1ccccc1)NC(=O)CNC(=O)COC[C@@H](N)Cc1ccc(O)cc1)C(N)=O
Ki [17]: 3.69 nM
Relative potency [7]: 106%
IC50 [10]: 92 nM
Ki [11]: 7.78 nM
Ratio [18]: 2.12
Relative potency [14]: 0.13%
Relative potency [15]: 1.06%
IC50 [12]: 30 nM
Ratio [16]: 3.12

CSCC[C@H](NC(=O)[C@H](Cc1ccccc1)NC(=O)CN(C)C(=O)CNC(=O)[C@@H](N)Cc1ccc(O)cc1)C(=O)O
Relative potency [7]: 0.1%

CSCC[C@H](NC(=O)[C@H](Cc1ccccc1)NC(=O)CNC(=O)CN(C)C(=O)[C@@H](N)Cc1ccc(O)cc1)C(=O)O
Relative potency [7]: <2.1%

CSCC[C@H](NC(=O)[C@H](CC(C)C)NC(=O)CNC(=O)[C@H](Cc1ccccc1)NC(=O)[C@H](Cc1ccccc1)NC(=O)[C@@H]1CCC(=O)N1)C(N)=O ([pGlu]FFGLM-NH2)
EC50 [19]: 5 nM
EC50 [1]: 2.2 nM
EC50 [3]: 1.2 nM
Relative potency [13]: 100%
EC50 [4]: 20000 nM
Ratio [6]: 0.44

COC(=O)[C@H](CC(C)C)NC(=O)[C@H](Cc1ccccc1)NC(=O)CNC(=O)C/C=C/[C@@H](N)Cc1ccc(O)cc1
Relative potency [7]: 300%

CC(C)C[C@H](NC(=O)[C@H](Cc1ccccc1)NC(=O)C/N=C(\S)CNC(=O)[C@@H](N)Cc1ccc(O)cc1)C(=O)O
Relative potency [7]: 400%

CC(C)C[C@H](NC(=O)[C@H](Cc1ccccc1)NC(=O)CNC(=O)CSC[C@@H](N)Cc1ccc(O)cc1)C(=O)O
Relative potency [7]: 24.1%

CC(C)C[C@H](NC(=O)[C@H](Cc1ccccc1)NC(=O)COC[C@@H](C)NC(=O)[C@@H](N)Cc1ccc(O)cc1)C(N)=O
IC50 [10]: 11.8 nM
Relative potency [14]: 1%
Relative potency [15]: 1%
IC50 [12]: 32 nM
Ratio [16]: 0.37

CC(C)C[C@H](NC(=O)[C@H](Cc1ccccc1)NC(=O)CSCCNC(=O)[C@@H](N)Cc1ccc(O)cc1)C(=O)O
Relative potency [7]: <1%

CSCC[C@H](NC(=O)[C@H](CC(C)C)NC(=O)CCC(=O)[C@H](Cc1ccccc1)NC(=O)[C@H](Cc1ccccc1)NC(=O)[C@@H]1CCC(=O)N1)C(N)=O ([pGlu]F[X3]LM-NH2)
EC50 [8]: 2 nM
Relative potency [9]: 70%

N[C@@H](Cc1ccc(O)cc1)C(=O)NC/C=C/CC(=O)N[C@@H](Cc1ccccc1)C(=O)N1CCC[C@H]1C(=O)O
Relative potency [7]: 0.1%

CSCC[C@H](NC(=O)[C@H](Cc1ccccc1)NC(=O)CNC(=O)CNC[C@@H](N)Cc1ccc(O)cc1)C(N)=O
Relative potency [7]: 56%

CC(C)C[C@H](NC(=O)[C@H](Cc1ccccc1)NC(=O)COCCNC(=O)[C@@H](N)Cc1ccc(O)cc1)C(N)=O (H-Y[AEA]FL-NH2)
Ki [17]: 1380 nM
Ratio [20]: inactive
Relative potency [7]: 1.4%
Ki [11]: 9200 nM
IC50 [21]: Not Active
Ratio [18]: 6.66
Relative potency [15]: 0.014%
IC50 [12]: 2300 nM
Relative potency [22]: inactive
